{"source": "patent US20080051372A1", "about": "“METHODS UTILIZING CELL-SIGNALING LYSOPHOSPHOLIPIDS” (THE SCRIPPS RESEARCH INSTITUTE, priority 2006, published 2008)", "key": {"[1]": {"test_system": "cortical neuronal progenitors (E14) plated onto cortical astrocyte monolayers", "experiment": "neuron-astrocyte co-culture on astrocytes previously treated with LPA", "type": "cell-based, mouse", "protocol": "All animal protocols were approved by the Animal Research Committee of The Scripps Research Institute, conformed to National Institutes of Health guidelines and public law. Astrocyte primary cultures were prepared from cerebral cortex of newborn mice as previously described (de Sampaio e Spohr et al., Neuron-glia interaction effects on GFAP gene: a novel role for transforming growth factor-31, 2002, Eur J Neurosci, 16:2059-2069, incorporated herein by reference and Sousa et al., Glial fibrillary acidic protein gene promoter is differently modulated by transforming growth factor-beta 1 in astrocytes from distinct brain regions, 2004, Eur Neurosci, 19(7):1721-1730, incorporated by reference in its entirety). Astrocytes cultures were generated from C57B1/6 and Swiss mice. Briefly, after the mice were anesthetized, they were decapitated, brain structures were removed and the meninges were carefully stripped off. Dissociated cells were plated onto glass coverslips in 24 wells-plate (Corning Incorporated, NY), previously coated with polyornithine (1.5 μg/ml, mol. wt. 41,000, Sigma Chemical Co., St. Louis, Mo.), in DMEM/F12 medium supplemented with 10% fetal calf serum (Invitrogen, Carlsbad, Calif.). The cultures were incubated at 37° C. in a humidified 5% CO2, 95% air chamber for 10 days until reaching confluence. For experiments with LPA null mice, embryos from LPA, LPA2 double-heterozygous females (on a mixed background C57B1/6×129SW) were genotyped by PCR using DNA isolated from a small part of the tail (Contos et al., Requirement of the LPA, lysophosphatidic acid receptor gene in normal suckling behavior, 2000, PNAS, 97(24):13384-13389, incorporated herein by reference; Contos et al., Characterization of LPA(2) (Edg4) and LPA(I)/LPA(2) (edg2/Edg4) lysophosphatidic acid receptor knockout mice: signaling deficits without obvious pehotypic abnormality attributable to LPA(2), 2002, Mol Cell Bio, 22(19):6921-6929, incorporated herein by reference).\nAfter reaching confluence, glial mono layers were washed three times with serum-free DMEM/F12 medium and incubated as previously described for an additional day in serum-free medium. Cultures were then treated with 1 μM LPA (Oleoyl-LPA, Avanti Polar Lipids) in DMEM/F12 supplemented with 0.1% fatty-acid free bovine serum albumin (FAFBSA, Sigma) for 4 hours. Control astrocyte carpets were treated with DMEM/F12 supplemented with 0.1% FAFBSA. Medium was then replaced by DMEM/F12 without serum and used as substrate in neuron-astrocyte assays.\nFor neuronal cultures, timed-pregnant BALB/c females (Simonsen Laboratories), C57B1/6 females or Swiss females were killed by halothane followed by cervical dislocation, and embryos were removed at the day 14 (E14). Cortical progenitors were prepared from cerebral hemispheres from E14 embryos as previously described (Martinez and Gomes, 2002, Neuritogenesis induced by thyroid hormone-treated astrocytes is mediated by epidermal growth factor/mitogen-activated protein kinase-phosphatidylinositol 3-kinase pathways and involves modulation of extracellular matrix proteins, J Biol Chem, 277:49311-49318, incorporated herein by reference; Sousa et al., 2004, Glial fibrillary acidic protein gene promoter is differently modulated by transforming growth factor-beta 1 in astrocytes from distinct brain regions, 2004, Eur J Neurosci 19(7):1721-17302004, incorporated herein by reference). Briefly, cells were freshly dissociated from cerebral hemispheres and 1×10^5 cells plated onto glial monolayer carpets non-treated or previously treated with LPA or LPA-conditioned medium for 4 hours as previously described. In the case of LPA CM assays, the medium was not replaced after 4 hours of treatment; instead it was left until the end of co-culture. Co-cultures were kept for 24 hours at 37° C. in a humidified 5% CO2, 95% air atmosphere. […]"}, "[2]": {"test_system": "cortical neuronal progenitors on retroviral infected LPA1/LPA2 double-null astrocytes", "experiment": "retroviral rescue of LPA1/LPA2 double-null astrocytes, co-culture", "type": "cell-based, mouse", "protocol": "Retroviral vectors expressing LPA1 or LPA2 were reported previously (Ishii et al., Functional comparisons of the lysophosphatidic acid receptors, LP(A1)/VZG-1/EDG-4, and LP(A3)/EDG-7 in neuronal cell lines using a retrovirus expression system, 2000, Mol. Pharmacology, 58:895-902, incorporated herein by reference) as depicted in FIG. 8A. LPA1/LPA2 double-null astrocytes were infected with the epitope-tagged LPA1, LPA2, or empty-vector control retrovirus in 4 μg/ml of polybrene to the media of subconfluent proliferating astrocytes plated in a monolayer. Plates were centrifuged (700 g) at 28° C. for 2 hours, and the astrocytes cultured for 48 hours in fresh media. Astrocytes were serum starved for another 24 hours and then used in the assays. Receptor expression was confirmed by epitope-tagged immunolabeling of GFP-positive cells.\nThe retroviral infected LPA1/LPA2 double-null astrocytes were treated with LPA. The astrocytes monolayers were co-cultured with cortical neuronal progenitors derived from E14 wild type mice. After 24 hours, cells were immunostained for the neuronal marker, β-tubulin III, and the number of neurons and arborization of their neurites were measured."}, "[3]": {"test_system": "cortical neuronal progenitors plated onto astrocyte monolayers derived from LPA1 LPA2 null mice", "experiment": "co-culture on LPA1 LPA2 null astrocytes previously treated with LPA", "type": "cell-based, mouse", "settings": "P>0.05", "protocol": "In order to address the involvement of LPA receptor in LPA-astrocyte effects on neuronal morphogenesis, cortical neuronal progenitors derived from E14 wild type mice were plated onto cortical astrocyte mono layers derived from LPA, LPA2 null mice previously treated with LPA. After 24 hours, cells were immunostained for the neuronal marker, β-tubulin III, and the number of neurons and arborization of their neurites were measured. […] The scale bar in FIG. 8 corresponds to 50 μm."}, "[4]": {"test_system": "astrocyte primary cultures from wild type and LPA double-null newborn mice", "experiment": "astrocyte morphology and GFAP immunostaining after LPA", "type": "cell-based, mouse", "settings": "1 μM LPA for 24 hours; wild type and LPA1 LPA2 null astrocytes", "text": "The Generation of Receptor-Null Mice Allows not Only Direct Examination of the systemic roles of LPA receptors in vivo (Contos et al., Requirement of the LPA1 lysophosphatidic acid receptor gene in normal suckling behavior, 2000, PNAS, 97(24):13384-13389, incorporated herein by reference; Contos et al., Characterization of LPA(2) (Edg4) and LPA(I)/LPA(2) (edg2/Edg4) lysophosphatidic acid receptor knockout mice: signaling deficits without obvious pehotypic abnormality attributable to LPA(2), 2002, Mol Cell Bio, 22(19):6921-6929, incorporated herein by reference) but it also contributes for further elucidation of LPA receptor-specific signaling pathways in receptor-null primary cells (Ishii et al., Functional comparisons of the lysophosphatidic acid receptors, LP(A1))/VZG-1/EDG-4, and LP(A3)/EDG-7 in neuronal cell lines using a retrovirus expression system, 2000, Mol. Pharmacology, 58:895-902, incorporated herein by reference). To determine whether LPA effects in the co-culture system are mediated by specific LPA receptors, astrocyte mono layers derived from mice with null mutations in both LPA1 and LPA2 receptors were prepared. Astrocyte primary cultures were prepared from cerebral cortex of wild type and LPA double-null newborn mice. Astrocyte mono layers were kept in DMEM/F12 medium supplemented with 10% fetal calf serum for days until reaching confluence. […]"}, "[5]": {"test_system": "TR mouse cerebral cortical immortalized neuroblast cells", "experiment": "LPA-like activity bioassay, cell rounding / neurite retraction", "type": "cell-based", "settings": "concentrations from 1 to 100 nM of LPA; 15-30 minutes", "protocol": "LPA-like activity was assayed by measuring morphological changes in TR mouse cerebral cortical immortalized neuroblast cells as previously described (Chun and Jaenisch, Clonal cell lines produced by infection of neocortical neuroblast using multiple oncogenes transduced by retroviruses, 1996, Mol Cell Neurosci, 18:379-383; Hecht et al., Ventricular zone gene-1 (vzg-I) encodes a lysophoshpatidic acid receptor expressed in neurogeneic regions of the developing cerebral cortex, 1996, J Cell Bio, 135:1071-1083, incorporated herein by reference; Ishii et al., Functional comparisons of the lysophosphatidic acid receptors, LPA(A1)IVZG-I/EDG-2, LP(A2)/EDG-4, and LP(A3)/EDG-7 in neuronal cell lines using a retrovirus expression system, 2000, Molecular Pharmacology, 58(5):895-902, incorporated herein by references; Fukushima et al., Lysophosphatidic acid influences the morphology and motility of young, postmitotic cortical neurons, 2002, Mol Cell Neurosci, 20(2):271-282, incorporated herein by reference). […] After this period, cells were fixed with 4% PFA and round cells were counted under phase-contrast optics (A-F). […]\nAfter this period, cells were fixed with 4% PFA and round cells were counted under phase-contrast optics (A-F) The cell number was expressed by percentage of protophasmic, non-round population. […]"}, "[6]": {"test_system": "cultured embryonic hippocampal neurons", "settings": "cited from earlier work"}, "[7]": {"settings": "neurons plated onto LPA-treated astrocytes, P<0.05"}, "[8]": {"settings": "double-null astrocytes infected with either the LPA1 or LPA2 retrovirus, treated with LPA"}}}
{"substance": "Oleoyl-LPA", "values": [{"measurement": "number of caspase positive cells (activated caspase-3)", "setting": "[1]; after 24 hours of coculture, control vs treated cultures, P>0.05", "value": "no difference"}, {"measurement": "increase in the number of β-tubulin III positive cells", "setting": "[1]; astrocytes treated with 1 μM LPA for 4 hours, 24 hours co-culture, vs control astrocytes, P<0.05", "value": 41, "unit": "%"}, {"measurement": "decrease in the number of aneuritic neurons", "setting": "[1]; [7]", "value": 64, "unit": "%"}, {"measurement": "neurons extending three or more neurites", "setting": "[1]; [7]", "value": "dramatic increase"}, {"measurement": "number of neurons with two neurites", "setting": "[1]; [7]", "value": "significant increase"}, {"measurement": "total number of cells", "setting": "[1]; progenitor cells plated onto LPA-astrocyte monolayers, P>0.05", "value": "not altered"}, {"measurement": "prevalence of greater than two neurites/neurons", "setting": "[2]; [8]", "value": "increased prevalence"}, {"measurement": "β-tubulin III cells", "setting": "[2]; [8]", "value": "increased"}, {"measurement": "neuronal differentiation", "setting": "[2]; double-null astrocytes infected with empty vector control virus (SOO3), primed with LPA", "value": "did not result in an increase"}, {"measurement": "neuronal population", "setting": "[3]; LPA1 LPA2 null astrocytes treated with LPA, 24 hours", "value": "did not affect neuronal population"}, {"measurement": "neuronal death", "setting": "[3]; treated vs non-treated LPA1 LPA2 null astrocytes", "value": "did not differ"}, {"measurement": "astrocyte morphology", "setting": "[4]", "value": "did not affect astrocyte morphology"}, {"measurement": "rounding of TR cells", "setting": "[5]", "value": "induced rounding"}]}
{"substance": "cyclic phosphatidic acid [cPA]", "values": [{"measurement": "neurite outgrowth", "setting": "[6]", "value": "promoted neurite outgrowth"}]}
